According to US8853230B2, “Inhibitors of JAK” (Portola Pharmaceuticals, Inc., priority 2009, dated 2014):

Experiments:
Assay type in all cases: biochemical
[1] = molecular target: T1, JAK3 (Homo sapiens, UniProt P52333); assay: Z'-LYTE kinase assay, JAK3 tyrosine phosphorylation activity
T1 construct: 5 μl of catalytic domain recombinant Kinase enzyme+Tyr peptide substrate (Invitrogen, Calif.); purchased Invitrogen
Summary of the method: (§1)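 FRET read-out (ex 400 nm, em 445 and 520 nm) after protease cleavage of non-phosphorylated Tyr6 peptide. Kinase step: catalytic-domain enzyme, peptide, ATP and compound, 1 h at RT, 1% DMSO. IC50 from a 4-parameter logistic fit of percent phosphorylation versus uninhibited control.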

[2] = molecular target: T2, JAK2 (Homo sapiens, UniProt O60674); assay: Z'-LYTE kinase assay, JAK2 tyrosine phosphorylation activity
T2 construct: 5 μl of catalytic domain recombinant Kinase enzyme+Tyr peptide substrate (Invitrogen, Calif.); purchased Invitrogen
Summary of the method: as §1

[3] = molecular target: Syk (Homo sapiens, UniProt P43405); assay: Syk IC50 (Table 1; method not given)
[4] = molecular target: T3, JAK1 (Homo sapiens, UniProt P23458); assay: Z'-LYTE kinase assay, JAK1 tyrosine phosphorylation activity; conditions: read-out: JAK 1 IC50
T3 construct: 5 μl of catalytic domain recombinant Kinase enzyme+Tyr peptide substrate (Invitrogen, Calif.); purchased Invitrogen
Summary of the method: as §1

T1 sequence (P52333 822-1111 limits assumed): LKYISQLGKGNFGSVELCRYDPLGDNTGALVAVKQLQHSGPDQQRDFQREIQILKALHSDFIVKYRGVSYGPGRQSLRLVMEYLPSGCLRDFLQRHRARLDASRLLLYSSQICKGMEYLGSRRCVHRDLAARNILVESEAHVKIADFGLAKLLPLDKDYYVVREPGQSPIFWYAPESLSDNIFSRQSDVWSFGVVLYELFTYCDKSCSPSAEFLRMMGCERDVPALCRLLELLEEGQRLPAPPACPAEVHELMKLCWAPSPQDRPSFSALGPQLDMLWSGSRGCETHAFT
T2 sequence (O60674 849-1124 limits assumed): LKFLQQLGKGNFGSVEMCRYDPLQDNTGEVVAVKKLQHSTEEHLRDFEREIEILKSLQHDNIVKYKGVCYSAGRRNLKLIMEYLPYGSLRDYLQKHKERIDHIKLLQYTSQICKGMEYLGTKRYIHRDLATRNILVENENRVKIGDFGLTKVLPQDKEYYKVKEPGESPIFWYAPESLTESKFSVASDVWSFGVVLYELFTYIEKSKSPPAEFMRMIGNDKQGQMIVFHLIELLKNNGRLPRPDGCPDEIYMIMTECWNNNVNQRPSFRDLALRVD
T3 sequence (P23458 875-1153 limits assumed): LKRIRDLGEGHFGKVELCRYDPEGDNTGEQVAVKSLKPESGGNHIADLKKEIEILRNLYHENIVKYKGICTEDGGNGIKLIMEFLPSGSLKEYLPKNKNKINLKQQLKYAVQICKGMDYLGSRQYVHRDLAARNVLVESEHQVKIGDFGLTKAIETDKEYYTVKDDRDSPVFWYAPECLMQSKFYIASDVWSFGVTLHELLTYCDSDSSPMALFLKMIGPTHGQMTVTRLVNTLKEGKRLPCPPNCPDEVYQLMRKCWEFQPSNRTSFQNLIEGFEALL

| SMILES | IC50 [1] [nM] | IC50 [2] [nM] | IC50 [3] [nM] | IC50 [4] [nM] |
| --- | --- | --- | --- | --- |
| CC(=O)Nc1cccc(Nc2ncc(C(N)=O)c(N[C@@H](C)c3ccccc3)n2)c1 [Example 64, (S)-2-(3-acetamidophenylamino)-4-(1-phenylethylamino)pyrimidine-5-carboxamide] | 10 to 100 | 100 to 1000 | > 1000 | 100 to 1000 |
| CC(=O)Nc1cccc(Nc2ncc(C(N)=O)c(NCCC(N)=O)n2)c1 [Example 61, 2-(3-acetamidophenylamino)-4-(3-amino-3-oxopropylamino)pyrimidine-5-carboxamide] | 10 to 100 | 100 to 1000 | > 1000 | 10 to 100 |
| CC(=O)Nc1cccc(Nc2ncc(C(N)=O)c(NCC(N)=O)n2)c1 [Example 50, 2-(3-acetamidophenylamino)-4-(2-amino-2-oxoethylamino)pyrimidine-5-carboxamide] | 100 to 1000 | 100 to 1000 | > 1000 | 100 to 1000 |
| CC(=O)Nc1cccc(Nc2ncc(C(N)=O)c(N[C@H](C)c3ccccc3)n2)c1 [Example 71, (R)-2-(3-acetamidophenylamino)-4-(1-phenylethylamino)pyrimidine-5-carboxamide] | 1 to 10 | 10 to 100 | > 1000 | 100 to 1000 |
| COCC(=O)Nc1cccc(Nc2ncc(C(N)=O)c(NCc3ccc(OC)cc3)n2)c1 [Example 44, 2-(3-(2-methoxyacetamido)phenylamino)-4-(4-methoxybenzylamino)pyrimidine-5-carboxamide] | 10 to 100 | 100 to 1000 | > 1000 | 100 to 1000 |
| COCC(=O)Nc1cccc(Nc2ncc(C(N)=O)c(N[C@@H](C)c3ccccc3)n2)c1 [Example 42, (S)-2-(3-(2-methoxyacetamido)phenylamino)-4-(1-phenylethylamino)pyrimidine-5-carboxamide] | 100 to 1000 | 100 to 1000 | > 1000 | 100 to 1000 |
| CC(=O)Nc1cccc(Nc2ncc(C(N)=O)c(N[C@@H](CO)CC(C)C)n2)c1 [Example 62, (R)-2-(3-acetamidophenylamino)-4-(1-hydroxy-4-methylpentan-2-ylamino)pyrimidine-5-carboxamide] | 10 to 100 | 100 to 1000 | > 1000 | 10 to 100 |
| CC(=O)Nc1cccc(Nc2ncc(C(N)=O)c(NCc3ccc(Cl)cc3)n2)c1 [Example 69, 2-(3-acetamidophenylamino)-4-(4-chlorobenzylamino)pyrimidine-5-carboxamide] | 10 to 100 | 100 to 1000 | > 1000 | 100 to 1000 |
| NC(=O)c1cnc(Nc2ccc(F)c(NC(=O)N3CCC3)c2)cc1NCc1cccc(F)c1 [Example 305, 6-(3-(azetidine-1-carboxamido)-4-fluorophenylamino)-4-(3-fluorobenzylamino)nicotinamide] | 1 to 10 | 100 to 1000 | > 1000 | 100 to 1000 |
| CC(=O)Nc1cccc(Nc2ncc(C(N)=O)c(NCCN3CCCC3)n2)c1 [Example 63, 2-(3-acetamidophenylamino)-4-(2-(pyrrolidin-1-yl)ethylamino)pyrimidine-5-carboxamide] | 100 to 1000 | > 1000 | > 1000 | > 1000 |
| CC(=O)Nc1cccc(Nc2ncc(C(N)=O)c(NC[C@@H](C)c3ccccc3)n2)c1 [Example 3, (S)-2-(3-acetamidophenylamino)-4-(2-phenylpropylamino)pyrimidine-5-carboxamide] | 1 to 10 | 1 to 10 | > 1000 | 10 to 100 |
| COCC(=O)Nc1cccc(Nc2ncc(C(N)=O)c(NCc3ccc(C)cc3)n2)c1 [Example 43, 2-(3-(2-methoxyacetamido)phenylamino)-4-(4-methylbenzylamino)pyrimidine-5-carboxamide] | 10 to 100 | 100 to 1000 | > 1000 | 100 to 1000 |
| CC(=O)Nc1cccc(Nc2ncc(C(N)=O)c(NC[C@@H](O)c3ccccc3)n2)c1 [Example 48, (S)-2-(3-acetamidophenylamino)-4-(2-hydroxy-2-phenylethylamino)pyrimidine-5-carboxamide] | 1 to 10 | 10 to 100 | > 1000 | 100 to 1000 |
| COCC(=O)Nc1cccc(Nc2ncc(C(N)=O)c(NCc3ccc(Cl)cc3)n2)c1 [Example 45, 4-(4-chlorobenzylamino)-2-(3-(2-methoxyacetamido)phenylamino)pyrimidine-5-carboxamide] | 100 to 1000 | 100 to 1000 | > 1000 | > 1000 |
| COCC(=O)Nc1cccc(Nc2ncc(C(N)=O)c(NCc3ccc(Cl)c(Cl)c3)n2)c1 [Example 46, 4-(3,4-dichlorobenzylamino)-2-(3-(2-methoxyacetamido)phenylamino)pyrimidine-5-carboxamide] | 100 to 1000 | > 1000 | > 1000 | > 1000 |
| CC(=O)Nc1cccc(Nc2ncc(C(N)=O)c(NCc3ccc(C)cc3)n2)c1 [Example 67, 2-(3-acetamidophenylamino)-4-(4-methylbenzylamino)pyrimidine-5-carboxamide] | 10 to 100 | 100 to 1000 | > 1000 | 100 to 1000 |
| CNC(=O)CNc1nc(Nc2cccc(NC(C)=O)c2)ncc1C(N)=O [Example 72, 2-(3-acetamidophenylamino)-4-(2-(methylamino)-2-oxoethylamino)pyrimidine-5-carboxamide] | 10 to 100 | 100 to 1000 | > 1000 | 100 to 1000 |
| CC(=O)Nc1cccc(Nc2ncc(C(N)=O)c(NCC3CC3)n2)c1 [Example 12, 2-(3-acetamidophenylamino)-4-(cyclopropylmethylamino)pyrimidine-5-carboxamide] |  |  | 100 to 1000 |  |
| COCC(=O)Nc1cccc(Nc2ncc(C(N)=O)c(NC3CCC3)n2)c1 [Example 55, 4-(cyclobutylamino)-2-(3-(2-methoxyacetamido)phenylamino)pyrimidine-5-carboxamide] | 1 to 10 | 10 to 100 | 100 to 1000 | 10 to 100 |
| CC(=O)Nc1cccc(Nc2ncc(C(N)=O)c(NC(C)(C)C)n2)c1 [Example 13, 2-(3-acetamidophenylamino)-4-(tert-butylamino)pyrimidine-5-carboxamide] |  |  | 100 to 1000 |  |

Results, then the compound that gave them:

| IC50 [1] [nM] | IC50 [2] [nM] | IC50 [3] [nM] | IC50 [4] [nM] | SMILES |
| --- | --- | --- | --- | --- |
| 1 to 10 | 10 to 100 | 100 to 1000 | 10 to 100 | CC(=O)Nc1cccc(Nc2ncc(C(N)=O)c(N[C@H]3CCC[C@@H]3O)n2)c1 (relative stereo) [Example 53, 2-(3-acetamidophenylamino)-4-((trans)-2-hydroxycyclopentylamino)pyrimidine-5-carboxamide] |
| 1 to 10 | 10 to 100 | 100 to 1000 | 10 to 100 | NC(=O)Nc1cccc(Nc2ncc(C(N)=O)c(NC3CCCC3)n2)c1 [Example 33, 4-(cyclopentylamino)-2-(3-ureidophenylamino)pyrimidine-5-carboxamide] |
| 1 to 10 | 10 to 100 | 100 to 1000 | 10 to 100 | CN(C)C(=O)Nc1cccc(Nc2ncc(C(N)=O)c(NC3CCCC3)n2)c1 [Example 35, 4-(cyclopentylamino)-2-(3-(3,3-dimethylureido)phenylamino)pyrimidine-5-carboxamide] |
| 1 to 10 | 10 to 100 | 100 to 1000 | 10 to 100 | COC(=O)Nc1cccc(Nc2ncc(C(N)=O)c(NC3CCCC3)n2)c1 [Example 23, methyl 3-(5-carbamoyl-4-(cyclopentylamino)pyrimidin-2-ylamino)phenylcarbamate] |
| 1 to 10 | 10 to 100 | 100 to 1000 | 10 to 100 | COCC(=O)Nc1cccc(Nc2ncc(C(N)=O)c(NC3CCCC3)n2)c1 [Example 22, 4-(cyclopentylamino)-2-(3-(2-methoxyacetamido)phenylamino)pyrimidine-5-carboxamide] |
| 1 to 10 | 1 to 10 | 100 to 1000 | 10 to 100 | COCC(=O)Nc1cccc(Nc2ncc(C(N)=O)c(NCc3c(F)ccc(F)c3F)n2)c1 [Example 58, 2-(3-(2-methoxyacetamido)phenylamino)-4-(2,3,6-trifluorobenzylamino)pyrimidine-5-carboxamide] |
| 1 to 10 | 10 to 100 | 100 to 1000 | 10 to 100 | CC(=O)Nc1cccc(Nc2ncc(C(N)=O)c(NCc3c(F)ccc(F)c3F)n2)c1 [Example 59, 2-(3-acetamidophenylamino)-4-(2,3,6-trifluorobenzylamino)pyrimidine-5-carboxamide] |
| 1 to 10 | 10 to 100 | 100 to 1000 | 10 to 100 | CNC(=O)Nc1cccc(Nc2ncc(C(N)=O)c(NC3CCCC3)n2)c1 [Example 34, 4-(cyclopentylamino)-2-(3-(3-methylureido)phenylamino)pyrimidine-5-carboxamide] |
| 10 to 100 | 10 to 100 | 100 to 1000 | 10 to 100 | CC(=O)Nc1cccc(Nc2ncc(C(N)=O)c(NCC#N)n2)c1 [Example 74, 2-(3-acetamidophenylamino)-4-(cyanomethylamino)pyrimidine-5-carboxamide] |
|  |  | 100 to 1000 |  | COCCNc1nc(Nc2cccc(NC(C)=O)c2)ncc1C(N)=O [Example 14, 2-(3-acetamidophenylamino)-4-(2-methoxyethylamino)pyrimidine-5-carboxamide] |
| 1 to 10 | 10 to 100 | 100 to 1000 | 10 to 100 | NC(=O)c1cnc(Nc2cccc(NC(=O)C3CC3)c2)nc1NC1CCCC1 [Example 19, 4-(cyclopentylamino)-2-(3-(cyclopropanecarboxamido)phenylamino)pyrimidine-5-carboxamide] |
